Where two headings read alike, the source gives them in different places.
Legend:
Format in all cases: cell-based
IKZF1 = IKZF1 (Homo sapiens, UniProt Q13422+Q96SW2); assay: Prolabel quantification of IKZF1 protein levels in 293GT cells; conditions: Prolabel assay, read-out: IKZF1 EC50
IKZF2 = IKZF2 (Homo sapiens, UniProt Q96SW2+Q9UKS7); assay: Prolabel quantification of IKZF2 protein levels in 293GT cells
GSPT1 = GSPT1 (Homo sapiens, UniProt P15170+Q96SW2); assay: Prolabel quantification of GSPT1 protein levels in 293GT cells; conditions: Prolabel assay, read-out: GSPT1 EC50
GSPT1, sequence (P15170 whole entry, the tested form may be a part): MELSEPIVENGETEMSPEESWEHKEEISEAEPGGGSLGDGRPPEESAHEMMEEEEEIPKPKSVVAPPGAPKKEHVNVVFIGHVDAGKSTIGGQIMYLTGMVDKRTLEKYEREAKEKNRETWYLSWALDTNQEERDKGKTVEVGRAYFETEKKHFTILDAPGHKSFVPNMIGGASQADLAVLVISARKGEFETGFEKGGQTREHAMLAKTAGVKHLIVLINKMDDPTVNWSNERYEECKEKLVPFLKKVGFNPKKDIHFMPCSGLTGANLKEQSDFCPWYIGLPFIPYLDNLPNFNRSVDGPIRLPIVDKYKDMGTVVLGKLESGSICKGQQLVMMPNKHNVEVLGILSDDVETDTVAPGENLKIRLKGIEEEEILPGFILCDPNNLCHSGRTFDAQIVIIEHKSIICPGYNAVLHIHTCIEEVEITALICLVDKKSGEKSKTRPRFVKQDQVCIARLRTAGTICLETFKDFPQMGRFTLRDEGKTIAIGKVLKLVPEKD
GSPT1, sequence (Q96SW2 whole entry, the tested form may be a part): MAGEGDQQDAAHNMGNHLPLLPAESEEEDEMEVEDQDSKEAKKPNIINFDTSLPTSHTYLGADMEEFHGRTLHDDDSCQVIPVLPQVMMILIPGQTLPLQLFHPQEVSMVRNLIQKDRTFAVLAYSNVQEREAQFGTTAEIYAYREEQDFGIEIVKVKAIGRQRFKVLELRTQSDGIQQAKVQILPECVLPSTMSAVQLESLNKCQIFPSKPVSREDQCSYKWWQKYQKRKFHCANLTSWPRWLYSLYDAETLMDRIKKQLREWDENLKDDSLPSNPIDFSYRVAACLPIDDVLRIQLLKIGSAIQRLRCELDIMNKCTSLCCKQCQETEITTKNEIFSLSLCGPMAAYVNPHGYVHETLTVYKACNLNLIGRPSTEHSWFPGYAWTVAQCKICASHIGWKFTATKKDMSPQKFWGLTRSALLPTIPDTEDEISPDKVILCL
GSPT1, sequence (Q16531 whole entry partner, the tested form may be a part): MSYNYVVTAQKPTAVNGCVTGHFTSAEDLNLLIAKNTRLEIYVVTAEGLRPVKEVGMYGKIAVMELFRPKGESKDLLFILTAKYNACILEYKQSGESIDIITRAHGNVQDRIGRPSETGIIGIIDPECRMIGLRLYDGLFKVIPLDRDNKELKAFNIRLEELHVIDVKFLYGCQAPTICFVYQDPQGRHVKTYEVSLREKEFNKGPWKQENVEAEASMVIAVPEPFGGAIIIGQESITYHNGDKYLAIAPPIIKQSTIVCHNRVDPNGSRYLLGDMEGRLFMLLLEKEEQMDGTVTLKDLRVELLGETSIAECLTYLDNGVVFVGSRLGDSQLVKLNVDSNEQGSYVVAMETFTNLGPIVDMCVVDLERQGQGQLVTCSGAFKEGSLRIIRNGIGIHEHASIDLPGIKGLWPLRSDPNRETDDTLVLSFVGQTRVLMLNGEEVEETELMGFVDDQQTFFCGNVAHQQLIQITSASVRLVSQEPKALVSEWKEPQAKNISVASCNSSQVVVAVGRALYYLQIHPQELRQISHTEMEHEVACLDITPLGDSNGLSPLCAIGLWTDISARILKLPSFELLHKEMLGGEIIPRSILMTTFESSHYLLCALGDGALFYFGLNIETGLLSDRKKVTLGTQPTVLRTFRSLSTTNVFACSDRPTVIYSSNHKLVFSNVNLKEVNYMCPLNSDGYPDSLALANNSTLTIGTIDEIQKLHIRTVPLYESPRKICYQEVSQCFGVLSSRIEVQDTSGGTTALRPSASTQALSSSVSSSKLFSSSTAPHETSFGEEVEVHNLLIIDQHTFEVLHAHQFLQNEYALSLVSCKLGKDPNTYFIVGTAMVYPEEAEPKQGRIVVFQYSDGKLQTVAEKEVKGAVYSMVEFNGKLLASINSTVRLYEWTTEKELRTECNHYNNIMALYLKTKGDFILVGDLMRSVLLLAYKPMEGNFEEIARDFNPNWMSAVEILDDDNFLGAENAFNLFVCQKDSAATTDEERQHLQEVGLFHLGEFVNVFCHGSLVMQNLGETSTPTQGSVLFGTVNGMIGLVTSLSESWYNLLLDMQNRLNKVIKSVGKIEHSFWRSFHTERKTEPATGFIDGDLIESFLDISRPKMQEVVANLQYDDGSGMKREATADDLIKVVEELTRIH
Description: The Prolabel system from DiscoverX was used to develop high-throughput and quantitative assays to measure changes in IKZF1, IKZF2 and GSPT1 protein levels in response to compounds. The prolabel tag was derived from the alpha fragment of beta galactosidase and has the following protein sequence: mssnslavvlqrrdwenpgvtqlnrlaahppfaswrnseeartdrpsqqlrslnge. The complementary fragment of beta-galactosidase (from DiscoverX), is added to the prolabel tag to form an active beta galactosidase enzyme whose activity can be precisely measured. In this way, the levels of a fusion protein with the prolabel tag can be quantified in cell lysates.
Lentiviral vectors, based on the Invitrogen pLenti6.2/V5 DEST backbone, were constructed that placed the prolabel tag upstream of IKZF1, IKZF2 or GSPT1 and expressed the fusion protein from a CMV promoter.
To ensure moderate and consistent expression of the prolabel fusion proteins across all cells in the population, stable cell lines were constructed from cells expressing a single copy of the construct. Lentivirus packaged with the constructs was made using the Virapower kit from Invitrogen.
The levels of prolabel tagged fusion proteins in compound treated cell lines were measured as follows:
Day 1, Cells were diluted to 1.0×10^6 cells/ml in normal growth medium. 17.5 μL of cells were plated in each well of a solid white 384 well plate. Plates were incubated overnight in a 37° C. tissue culture incubator.
Day 2, Serial dilutions of compounds were made in 384 well plates from 10 mM stocks. 15 μL of DMSO was added to each well of a 384 well plate. In the first column 15 μL of stock compound was added. The solution was mixed and 15 μL was transferred to the next column. This was repeated until 20 two-fold dilutions were prepared. 2.5 μL of diluted compounds were transferred into 60 μL of cell culture medium in another 384 well plate, and mixed well. 2.5 μL of this mixture was added to the plated cells. The final DMSO concentration was 0.5% and the highest concentration of compound was 50 μM. Plates were incubated overnight (e.g., about 14 h, 18 h, or 24 h) in a 37° C. tissue culture incubator.
Day 3, Plates were removed from the incubator and allowed to equilibrate at rt for 30 minutes. Prolabel substrate (DiscoverX PathHunter Prolabel Detection Kit, User manual: 93-0180) was added as described by the manufacturers protocols. Plates were incubated at rt for three hours and luminescence was read using an Envision reader (Perkin Elmer) Data was analyzed and visualized using the Spotfire software package.

[1] = 24 h, 10 μM, 24 h, 293GT cells; read-out: IKZF2 % protein reduction at 10 μM, 24 h
[2] = Prolabel assay, 293GT cells; read-out: IKZF2 EC50
[3] = 10 μM, 24 h, 293GT cells; read-out: IKZF2 % protein reduction at 10 μM, 24 h

IKZF1, sequence (Q13422 whole entry): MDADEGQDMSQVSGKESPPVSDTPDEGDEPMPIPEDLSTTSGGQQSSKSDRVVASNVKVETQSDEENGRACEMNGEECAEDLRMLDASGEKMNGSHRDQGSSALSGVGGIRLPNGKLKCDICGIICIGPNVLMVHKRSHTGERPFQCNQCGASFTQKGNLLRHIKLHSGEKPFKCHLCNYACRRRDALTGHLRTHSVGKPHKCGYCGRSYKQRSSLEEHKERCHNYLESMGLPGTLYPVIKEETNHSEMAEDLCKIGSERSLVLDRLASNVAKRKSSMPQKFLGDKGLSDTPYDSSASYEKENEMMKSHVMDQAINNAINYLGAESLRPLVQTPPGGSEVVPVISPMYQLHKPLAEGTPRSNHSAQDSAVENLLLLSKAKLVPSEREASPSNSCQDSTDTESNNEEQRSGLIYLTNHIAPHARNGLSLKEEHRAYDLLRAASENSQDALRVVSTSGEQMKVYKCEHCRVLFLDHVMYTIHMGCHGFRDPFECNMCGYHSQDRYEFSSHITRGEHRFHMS
IKZF1, sequence (Q96SW2 whole entry): as the sequence (Q96SW2 whole entry, the tested form may be a part) above
IKZF1, sequence (Q16531 whole entry partner): as the sequence (Q16531 whole entry partner, the tested form may be a part) above
IKZF2, sequence (Q9UKS7 whole entry): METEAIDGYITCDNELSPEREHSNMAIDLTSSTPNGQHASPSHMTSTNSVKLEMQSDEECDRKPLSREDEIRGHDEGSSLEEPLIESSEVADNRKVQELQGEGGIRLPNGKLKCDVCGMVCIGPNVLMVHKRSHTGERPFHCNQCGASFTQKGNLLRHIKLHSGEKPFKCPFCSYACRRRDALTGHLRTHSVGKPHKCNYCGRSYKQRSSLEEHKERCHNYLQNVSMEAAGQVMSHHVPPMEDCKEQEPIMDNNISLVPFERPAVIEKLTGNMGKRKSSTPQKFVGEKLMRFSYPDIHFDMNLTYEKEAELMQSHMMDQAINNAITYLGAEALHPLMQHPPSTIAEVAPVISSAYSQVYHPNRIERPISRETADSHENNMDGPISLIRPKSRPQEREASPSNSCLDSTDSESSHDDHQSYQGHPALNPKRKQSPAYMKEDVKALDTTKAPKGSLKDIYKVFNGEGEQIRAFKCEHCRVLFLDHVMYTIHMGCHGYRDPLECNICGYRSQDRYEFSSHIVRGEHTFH
IKZF2, sequence (Q96SW2 whole entry): as the sequence (Q96SW2 whole entry, the tested form may be a part) above
IKZF2, sequence (Q16531 whole entry partner): as the sequence (Q16531 whole entry partner, the tested form may be a part) above

| SMILES | DC50 (IKZF1) [µM] | inhibition at 10 µM (IKZF2; [1]) [%] | DC50 (IKZF2; [2]) [µM] | DC50 (GSPT1) [µM] | inhibition at 10 µM (IKZF2; [3]) [%] |
| --- | --- | --- | --- | --- | --- |
| O=C1CCC(N2Cc3cc(C4CCN(Cc5cccc6c5CCCC6)CC4)ccc3C2=O)C(=O)N1 (stereo not drawn) [Compound I-164, 3-(1-oxo-5-(1-((5,6,7,8-tetrahydronaphthalen-1-yl)methyl)piperidin-4-yl)isoindolin-2-yl)piperidine-2,6-dione] | > 50 | 50 | 0.018 | > 50 |  |
| O=C1CCC(N2Cc3cc(C4CCN(CC5CCCc6ccccc65)CC4)ccc3C2=O)C(=O)N1 (stereo not drawn) [Compound I-168, 3-(1-oxo-5-(1-((1,2,3,4-tetrahydronaphthalen-1-yl)methyl)piperidin-4-yl)isoindolin-2-yl)piperidine-2,6-dione] | > 50 | 55 | 0.014 | > 50 |  |
| COC(=O)CN1CCC(c2ccc3c(c2)CN(C2CCC(=O)NC2=O)C3=O)CC1 (stereo not drawn) [Compound I-169, methyl 2-(4-(2-(2,6-dioxopiperidin-3-yl)-1-oxoisoindolin-5-yl)piperidin-1-yl)acetate] | > 50 |  |  | > 50 | 20 |
| O=C1CCC(N2Cc3cc(C4CCN(c5ccccc5)CC4)ccc3C2=O)C(=O)N1 (stereo not drawn) [Compound I-170, 3-(1-oxo-5-(1-phenylpiperidin-4-yl)isoindolin-2-yl)piperidine-2,6-dione] | > 50 |  |  | > 50 | 5 |
| CC1(C)CC(c2ccc3c(c2)CN(C2CCC(=O)NC2=O)C3=O)CC(C)(C)N1 (stereo not drawn) [Compound I-171, 3-(1-oxo-5-(2,2,6,6-tetramethylpiperidin-4-yl)isoindolin-2-yl)piperidine-2,6-dione] | > 50 | 5 |  | > 50 |  |
| O=C1CCC(N2Cc3cc(C4CCN(Cc5ccnc6ccccc56)CC4)ccc3C2=O)C(=O)N1 (stereo not drawn) [Compound I-214, 3-(1-oxo-5-(1-(quinolin-4-ylmethyl)piperidin-4-yl)isoindolin-2-yl)piperidine-2,6-dione] | > 50 | 70 | 0.019 | > 30 |  |
| O=C1CCC(N2Cc3cc(C4CCN(Cc5ccc6nccnc6c5)CC4)ccc3C2=O)C(=O)N1 (stereo not drawn) [Compound I-239, 3-(1-oxo-5-(1-(quinoxalin-6-ylmethyl)piperidin-4-yl)isoindolin-2-yl)piperidine-2,6-dione] | > 30 | 70 | 0.007 | > 30 |  |
| Cc1onc(-c2ccccc2)c1CN1CCC(c2ccc3c(c2)CN(C2CCC(=O)NC2=O)C3=O)CC1 (stereo not drawn) [Compound I-251, 3-(5-(1-((5-methyl-3-phenylisoxazol-4-yl)methyl)piperidin-4-yl)-1-oxoisoindolin-2-yl)piperidine-2,6-dione] | > 30 | 60 | 0.021 | > 30 |  |
| O=C1CCC(N2Cc3cc(C4CCN(CC(F)(F)F)CC4)ccc3C2=O)C(=O)N1 (stereo not drawn) [Compound I-253, 3-(1-oxo-5-(1-(2,2,2-trifluoroethyl)piperidin-4-yl)isoindolin-2-yl)piperidine-2,6-dione] | > 50 | 0 | > 50 | > 50 |  |

Now from value to compound, other results behind:

| DC50 (IKZF1) [µM] | inhibition at 10 µM (IKZF2; [1]) [%] | DC50 (IKZF2; [2]) [µM] | DC50 (GSPT1) [µM] | SMILES | inhibition at 10 µM (IKZF2; [3]) [%] |
| --- | --- | --- | --- | --- | --- |
| > 30 | 50 | 0.016 | > 30 | Cn1nc(CN2CCC(c3ccc4c(c3)CN(C3CCC(=O)NC3=O)C4=O)CC2)c2ccccc21 (stereo not drawn) [Compound I-203, 3-(5-(1-((1-methyl-1H-indazol-3-yl)methyl)piperidin-4-yl)-1-oxoisoindolin-2-yl)piperidine-2,6-dione] |  |
| > 30 | 70 | 0.05 | > 30 | CN1CCN(Cc2cc(CN3CCC(c4ccc5c(c4)CN(C4CCC(=O)NC4=O)C5=O)CC3)ccc2O)CC1 (stereo not drawn) [Compound I-205, 3-(5-(1-(4-hydroxy-3-((4-methylpiperazin-1-yl)methyl)benzyl)piperidin-4-yl)-1-oxoisoindolin-2-yl)piperidine-2,6-dione] |  |
| > 30 | 80 | 0.009 | > 30 | N#CCc1ccc(CN2CCC(c3ccc4c(c3)CN(C3CCC(=O)NC3=O)C4=O)CC2)cc1 (stereo not drawn) [Compound I-206, 2-(4-((4-(2-(2,6-dioxopiperidin-3-yl)-1-oxoisoindolin-5-yl)piperidin-1-yl)methyl)phenyl)acetonitrile] |  |
| 0.039 | 80 | 0.024 | > 30 | O=C1CCC(N2Cc3cc(C4CCN(Cc5csc(-c6ccccc6)n5)CC4)ccc3C2=O)C(=O)N1 (stereo not drawn) [Compound I-211, 3-(1-oxo-5-(1-((2-phenylthiazol-4-yl)methyl)piperidin-4-yl)isoindolin-2-yl)piperidine-2,6-dione] |  |
| > 30 | 70 | 0.045 | > 30 | O=C1CCC(N2Cc3cc(C4CCN(Cc5nc6ccsc6c(=O)[nH]5)CC4)ccc3C2=O)C(=O)N1 (stereo not drawn) [Compound I-213, 3-(1-oxo-5-(1-((4-oxo-3,4-dihydrothieno[3,2-d]pyrimidin-2-yl)methyl)piperidin-4-yl)isoindolin-2-yl)piperidine-2,6-dione] |  |
| 0.22 | 80 | 0.01 | > 30 | CN(C)S(=O)(=O)c1cccc(CN2CCC(c3ccc4c(c3)CN(C3CCC(=O)NC3=O)C4=O)CC2)c1 (stereo not drawn) [Compound I-216, 3-((4-(2-(2,6-dioxopiperidin-3-yl)-1-oxoisoindolin-5-yl)piperidin-1-yl)methyl)-N,N-dimethylbenzenesulfonamide] |  |
| > 30 | 65 | 0.12 | > 30 | Cc1ccc2sc(-c3ccc(CN4CCC(c5ccc6c(c5)CN(C5CCC(=O)NC5=O)C6=O)CC4)cc3)nc2c1 (stereo not drawn) [Compound I-225, 3-(5-(1-(4-(5-methylbenzo[d]thiazo1-2-yl)benzyl)piperidin-4-yl)-1-oxoisoindolin-2-yl)piperidine-2,6-dione] |  |
| > 30 | 70 | 0.018 | > 30 | O=C1CCC(N2Cc3cc(C4CCN(Cc5ccc6ccc(F)cc6n5)CC4)ccc3C2=O)C(=O)N1 (stereo not drawn) [Compound I-232, 3-(5-(1-((7-fluoroquinolin-2-yl)methyl)piperidin-4-yl)-1-oxoisoindolin-2-yl)piperidine-2,6-dione] |  |
| > 30 | 70 | 0.02 | > 30 | CN(C)S(=O)(=O)c1ccc(CN2CCC(c3ccc4c(c3)CN(C3CCC(=O)NC3=O)C4=O)CC2)cc1 (stereo not drawn) [Compound I-237, 4-((4-(2-(2,6-dioxopiperidin-3-yl)-1-oxoisoindolin-5-yl)piperidin-1-yl)methyl)-N,N-dimethylbenzenesulfonamide] |  |
